Laboratory results: patent US20240101584A1, “TARGETED DELIVERY OF 1,2,4,5 TETRAOXANE COMPOUNDS AND THEIR USES” (Westlake University, priority 2021, published 2024)
pIC50: −log10 of the molar value.

Key:
[1] = test system: HEK293 cells; experiment: MTT viability assay, HEK293 cells; type: cell-based; details: Homo sapiens, HEK293, 48 h incubation, mean, n = 3, read-out: IC50 against HEK293 cells
[2] = test system: HEY A8 cells; experiment: Protective effect of DFO and Fer-1 on adherent HEY A8 cells; type: cell-based; details: 24 h treatment
Experimental: FIG. 4 is a bar graph showing the protective effect of DFO and Fer-1 on HeyA8 cancer cells after treatment with compound 48 for 24 h. *P≤0.01, ***P≤0.001 versus non-pretreated group. Data represent mean±SD, n=3 biologically independent samples. All P values were determined using two-tailed Student's t-test.

| SMILES | pIC50 [1] | effect of DFO or Fer-1 pretreatment on induced cell death, adherent HEY A8 cells [2] |
| --- | --- | --- |
| CC(C)(C)C1CCC2(CC1)OOC1(CCC(OC(=O)NCCC[P+](c3ccccc3)(c3ccccc3)c3ccccc3)CC1)OO2.[Br-] (centres unmarked) [Compound 37b, (3-((((12-(tert-butyl)-7,8,15,16-tetraoxadispiro[5.2.59.26]hexadecan-3-yl)oxy)carbonyl)amino)propyl)triphenylphosphonium bromide] | 5.80 |  |
| CC(C)(C)C1CCC2(CC1)OOC1(CCC(OC(=O)NCCC[N+](C)(Cc3ccccc3)Cc3ccccc3)CC1)OO2.[I-] (centres unmarked) [Compound 48, N,N-dibenzyl-3-((((12-(tert-butyl)-7,8,15,16-tetraoxadispiro[5.2.59.26]hexadecan-3-yl)oxy)carbonyl)amino)-N-methylpropan-1-aminium iodide] |  | reversed the cell death |
